The structures appear in SMILES notation. Counter-ions that a name gives are not always drawn.

Series [1] relates to KATP channels. The conditions noted are these: membrane patches from rabbit mesenteric arterial smooth muscle cells, in the presence of ATP; cited from earlier work.
For series [2] the following is noted: in vivo; cited from earlier work.
For series [3] the following is noted: cited from earlier work.
The conditions of series [4]: trials terminated; most likely due to poor bioavailability; cited from earlier work.
In series [5] the test system is isolated rat mesenteric lymph vessels. The following applies: cited from earlier work; for rhythmic contractions of isolated rat mesenteric lymph vessels: exposure to KATP channel openers.
Series [6] deals with CD31 and VE-Cadherin. Kind of series: Expression of biomarker proteins for hyperemia and vessel integrity. The following applies: compared to Y-27632, a Rho kinase inhibitor. The source says: Furthermore, the effect of levcromakalim on selected biomarkers for hyperemia and perturbations to vessel integrity has been established.

For `CC1(C)Oc2ccc(C#N)cc2C(N2CCCC2=O)C1O` (stereo not shown) [Cromakalim, cromakalim], the “increase of open-state probability (Popen) of single KATP channels” value in series [1] is “more than 9 fold”. Moreover, the “effect on blood pressure” value in series [2] was “lower blood pressure”. The solubility in water result in series [3] is listed as “substantially insoluble in water”. For the same molecule, the “outcome of human clinical trials” value in series [4] is on record as “lack of activity”. For the same molecule, in series [5], the “rhythmic contractions of isolated rat mesenteric lymph vessels” value (“rhythmic contractions” below) was “progressively impaired”. In series [5] (increasing concentrations, flow impaired by attenuating frequency and amplitude), the “contractions of the vessels at increasing concentrations” value was “ultimately abolished the contractions”.

For the molecule `CC1(C)Oc2ccc(C#N)cc2[C@@H](N2CCCC2=O)[C@@H]1O` [Levcromakalim, levcromakalim], the “impact on expression of measured proteins indicative of tissue and vessel integrity” value in series [6] is reported as “no significant impact”.

`CC1=NS(=O)(=O)c2cc(Cl)ccc2N1` [diazoxide]: the “effect on blood pressure” value in series [2] is reported as “lower blood pressure”. Besides, the “rhythmic contractions” value in series [5] is reported as “progressively impaired”.

On to `Nc1cc(N2CCCCC2)nc(N)[n+]1OS(=O)(=O)[O-]` [minoxidil sulfate], for which, in series [5], the “rhythmic contractions” value is given as “progressively impaired”.

Values taken from patent US20240285580A1, “COMPOSITIONS AND METHODS FOR EXTENDED RELEASE CROMAKALIM THERAPY” (Qlaris Bio, Inc., priority 2021, published 2024).
